“Also recorded” adds a separate entry of the source. Bridge positions count the residues as written; N and C are the ends. Ends that are not written are not given here.
How the values were obtained:
[1] = test system: streptozotocin (STZ) induced diabetic mouse model; experiment: Plasma insulin levels by mouse insulin ELISA in STZ induced diabetic mouse model (Example 1); type: in vivo, mouse (C57Bl/6); conditions: for Plasma insulin levels as compared to vehicle treated control: days 14 and 28; for Insulin (Mean): plasma
Procedure: (§1) Following acclimatization, mice were dosed intraperitoneally (IP) with 50 mg/kg STZ solubilized in 0.05 M sodium citrate at a volume of 100 μl per mouse for five consecutive days. Blood Glucose levels were monitored beginning day 4 post STZ using a glucose meter (Accu-Chek Advantage from Roche). On day six (after five days of STZ injection) mice were grouped into four groups having average blood glucose levels of 200 mg/dL. Two groups were dosed with PanCyte (SEQ ID NO:22) 50 and 500 μg/kg body weight respectively, one group was dosed with TXA-127 (SEQ ID NO:1) 500 ug/kg, and one group was dosed with PBS as vehicle control.
Plasma insulin levels were measured on days 14 and 28 after treatment. Blood samples (approximately 50 to 100 ul) were collected and processed for plasma by centrifugation. Plasma samples were then used for the measurement of insulin levels using a mouse sensitive insulin ELISA kit (ALPCO Diagnostic), according the to manufacturer's instructions.

[2] = test system: adipocytes; conditions: administered directly to adipocytes in vitro; Liu, C. et al. 2011; cited from earlier work
[3] = test system: streptozotocin (STZ) induced diabetic mouse model; experiment: Blood glucose in STZ induced diabetic mouse model (Example 1); type: in vivo, mouse (C57Bl/6); conditions: 50 and 500 μg/kg body weight; monitored 3×/week for 4 weeks post STZ; FIG. 1
Description: Streptozotocin is a widely used chemical agent for producing Type-I Diabetes in experimental animals. The chemical is thought to cause Diabetes by direct action on the pancreatic beta cells and inhibits the insulin secretory mechanism. Depending upon the dosing regimen, streptozotocin can cause a mild, moderate, or severe diabetic condition.
C57Bl/6 female, 7-8 weeks old were used for the study. Upon arrival, mice were 6 weeks of age. All the mice were obtained from The Jackson Laboratory, Bar Harbor, Me. 04609, USA.
as §1
Blood glucose was be monitored 3×/week for 4 weeks post STZ. Blood glucose levels was be monitored using a glucose meter by placing a drop of blood directly on to the meter strip, and measuring according to manufacturer's instructions.

[4] = test system: streptozotocin (STZ) induced diabetic mouse model; experiment: Blood glucose in STZ induced diabetic mouse model (Example 2); type: in vivo, mouse (C57Bl/6); conditions: for Blood Glucose (Mean): 50 μg/kg SC once daily; for Blood glucose levels as compared to vehicle treated group: 50 μg/kg body weight SC for twenty eight days
Procedure: C57Bl/6 female mice, 6-7 weeks old were used for the study and conditions were the same as for Example 1 above unless otherwise specified. Following acclimatization, mice were dosed intraperitoneally (IP) with 50 mg/kg STZ solubilized in 0.05 M sodium citrate buffer at a volume of 100 μl per mouse for five consecutive days. Blood Glucose levels were monitored on day 6 post STZ using Accu check glucose meter. Mice were grouped having average blood glucose levels of 200 mg/dL. There were three groups of ten mice each. Mice were dosed subcutaneously with Linear PanCyte (SEQ ID NO:6), PanCyte or vehicle for twenty-eight days. […]
Linear PanCyte and PanCyte were prepared in saline and administrated subcutaneously at a dose volume of 100 μl/mouse daily for twenty-eight days. Dosing solutions were prepared fresh every three days.
The blood glucose level was lowest in the groups treated with PanCyte 50 μg/kg followed by Linear-PanCyte 50 μg/kg.

[5] = test system: diabetic mouse model; conditions: Bindom et al. 2010; cited from earlier work
[6] = dose 500 μg (500 μg/kg body weight), day 14 after treatment
[7] = dose 500 μg (500 μg/kg body weight), day 28 after treatment

Substance | Plasma insulin levels as compared to vehicle treated control ([1]; 500 ug/kg weight) | Insulin (Mean) [1, 6] [ng/mL] | Insulin (Mean) [1, 7] [ng/mL] | Blood Glucose (Mean) ([4]; day 1) [mg/dL] | Blood Glucose (Mean) ([4]; day 3) [mg/dL] | Blood Glucose (Mean) ([4]; day 5) [mg/dL] | Blood Glucose (Mean) ([4]; day 8) [mg/dL] | Blood Glucose (Mean) ([4]; day 10) [mg/dL] | Blood Glucose (Mean) ([4]; day 12) [mg/dL] | Blood Glucose (Mean) ([4]; day 15) [mg/dL] | Blood Glucose (Mean) ([4]; day 17) [mg/dL] | Blood Glucose (Mean) ([4]; day 19) [mg/dL] | Blood Glucose (Mean) ([4]; day 22) [mg/dL] | Blood Glucose (Mean) ([4]; day 24) [mg/dL] | Blood Glucose (Mean) ([4]; day 26) [mg/dL] | Blood glucose levels as compared to vehicle treated group [4] | other results
Asp^1-Arg^2-Val^3-Tyr^4-Ile^5-His^6-Pro^7 [TXA-127] | significantly higher levels of insulin | 1.097 | 0.954 |  |  |  |  |  |  |  |  |  |  |  |  |  | Glucose uptake [2]: increased glucose uptake
Asp^1-Arg^2-Val^3-Ser^4-Ile^5-His^6-Cys^7 [PanCyte] (DRVSIHC; bridge 4-7) | significantly higher levels of insulin | 1.016 | 0.902 | 223 | 205.3 | 197.8 | 213.2 | 230.7 | 234.8 | 232.5 | 240.3 | 230 | 237.1 | 237.3 | 232.6 | Significant differences; also recorded: lowered blood glucose levels significantly | Blood glucose levels [3]: decreased blood glucose levels; Plasma insulin levels as compared to vehicle treated control ([1]; 50 ug/kg weight): significantly higher levels of insulin; Insulin (Mean) ([1]; dose 50 μg (50 μg/kg body weight), day 14 after treatment): 1.217 ng/mL; Insulin (Mean) ([1]; dose 50 μg (50 μg/kg body weight), day 28 after treatment): 1.244 ng/mL
Asp^1-Arg^2-Val^3-Ser^4-Ile^5-His^6-Cys^7 [Linear-PanCyte] (DRVSIHC; linear) |  |  |  | 222.8 | 202.2 | 220.7 | 248.5 | 252.1 | 276.1 | 278.6 | 269.3 | 280.7 | 266.2 | 256.3 | 253 | Significant differences; also recorded: lowered blood glucose levels significantly | 
D-Ala^7-Ang-(1-7) |  |  |  |  |  |  |  |  |  |  |  |  |  |  |  |  | Effect on the decrease in blood glucose and increase in insulin levels seen with ACE2 expression [5]: blocked the decrease in blood glucose
